As a reminder, the EC50 is the concentration giving half of the maximal effect.

Test [1] deals with rabbit iliac artery rings. It counts as cell-based. Particulars: for Effect on PE contractions: 2′,5′-DDA 200 μM, glibenclamide 10 μM, charybdotoxin 100 nM plus apamin 300 nM. How it is done: (§1) Isolated Ring Preparations. Male New Zealand white rabbits (2-2.5 kg) were sacrificed with sodium pentobarbitone (120 mg/kg; i.v.) and the iliac artery removed and transferred to cold Holman's buffer of the following composition (mM): 120 NaCl, 5 KCl, 2.5 CaCl2, 1.3 NaH2PO4, 25 NaHCO3, 11 glucose, and 10 sucrose. The vessels were stripped of adherent tissue, and rings 2-3 mm wide cut and suspended in organ chambers containing gassed (95% 02, 5% CO2, pH 7.4) buffer at 37 C. Tension was set at 0.25 g and during an equilibrium period of 1 h the tissues were repeatedly washed with fresh buffer and tension readjusted following stress relaxation. Endothelium-intact rings were incubated for 40 min with N^G-nitro-L-arginine methyl ester (L-NAME, 300 μM) and indomethacin (10 μM) and following constriction with phenylephrine (PE) cumulative concentration-relaxation curves to ACh or A23187 were constructed. Some preparations were preincubated for 40 min with either 2′5′-dideoxyadenosine (2′5′-DDA, 200 μM), 3-isobutyl-1-methylxanthine (IBMX, 20 μM), 18α-GA (100 μM), glibenclamide (10 μM), the combination of charybdotoxin (100 nM) and apamin (300 nM), or the combination of charybdotoxin (100 nM), apamin (300 nM) and IBMX (20 μM). Concentration-response curves to ACh and A23187 were also constructed for endothelium-denuded rings in the absence/presence of IBMX (20 μM). In experiments with IBMX the concentration of PE used to induce tone was increased from 1 to 3 μM. All reagents were obtained from Sigma, U.K.

For test [2], the system named is smooth muscle cAMP levels. Put plainly: Radioimmunoassay of cAMP in iliac artery rings. It counts as cell-based, rabbit. How it is done:
Radioimmunoassay. Multiple rings from the same artery were incubated in oxygenated Holmans buffer containing L-NAME (300 μM) and indomethacin (10 μM) for 40 min at 37° C. in the presence or absence of 18α-GA (100 μM). Rings were frozen in liquid N2 at time points up to 180 s following addition of ACh or A23187 and stored at −70° C. before extraction of cAMP or cGMP in 6% trichloroacetic acid, followed by neutralization with water saturated diethyl ether and subsequent radioimmunoassay (Amersham UK). PE (1 μM) was added 3 min before the initial control point and control experiments were performed with endothelium-denuded rings. Nucleotide levels were expressed relative to protein content (27).

For test [3], the system named is sandwich preparations of rabbit iliac artery. Nature of the test: 'Sandwich' bioassay preparations of iliac artery (endothelium-intact donor ring, denuded detector strip). The format is cell-based. From the text: ‘Sandwich’ preparations. Rings of iliac artery 2-3 mm wide were denuded of endothelium, cut into strips and pierced ˜2 mm from each end using a Monoject needle (0.9 mm×40 mm). These strips were introduced into the lumen of rings of endothelium-intact iliac artery 4-5 mm wide and the tissues sutured together. Composite preparations were then mounted in a Mulvany Multi Myograph (Danish Myo Technology) with the pierced denuded strips hooked onto the large vessel mountings. Tension was initially set at ˜0.25 g and readjusted during an equilibrium period of 1 h. The preparations were then incubated for 40 min with L-NAME (300 μM) and indomethacin (10 μM), constricted with PE (1 or 3 μM), and concentration-response curves constructed for ACh in the presence/absence of IBMX (20 μM), or A23187 in the presence/absence of IBMX (20 μM) or 2′5′DDA (200 μM).
(§2) Statistical Analysis All data are given as mean±SEM, where n denotes the number of animals studied for each data point, and were compared by the Student's t-test for paired or unpaired data as appropriate. P<0.05 was considered as significant. Concentration-response curves were assessed by one-way analysis of variance (ANOVA) followed by the Bonferroni multiple comparisons test.

For test [4], the system named is rabbit iliac artery rings. Nature of the test: EDHF-type relaxation of isolated rabbit iliac artery rings constricted with phenylephrine. The format is cell-based. How it is done: as §1, with “The vessels were stripped of adherent tissue, and rings 2-3 mm wide cut and suspended in organ chambers containing gassed (95% 02, 5% CO2, pH 7.4) buffer at 37 C. Tension was set at 0.25 g and during an equilibrium period of 1 h the tissues were repeatedly washed with fresh buffer and tension readjusted following stress relaxation.” left out
as §2

Test [5] deals with subintimal smooth muscle cells of rabbit iliac artery strips. Put plainly: Membrane potential experiments (sharp microelectrode) in iliac artery strips. It counts as cell-based. How it is done:
Membrane Potential Experiments. Iliac artery strips were held adventitia down in an oxygenated (95% O2, 5% CO2) organ chamber by a Harp slice grid (ALA Scientific Instruments, USA) superfused (2 ml/min at 37° C.) with Holmans solution containing 300 μM L-NAME and 10 μM indomethacin. Transmembrane potential was recorded with glass capillary microelectrodes (tip resistance of 60-110 M[…] filled with 3M KCl and connected to the headstage of a SEC-10LX amplifier (NPI Electronic, Germany). Successful impalements were achieved following a sudden negative drop in potential from baseline and a stable signal for at least 2 min. To ensure recordings were made from smooth muscle cells the microelectrode was advanced into the subintima using a PCS-5000 micromanipulator (Burleigh Instruments, UK) until there had been 2-3 such negative deflections. After first obtaining control responses to ACh by direct administration into the organ chamber under conditions of no flow, the strips were washed with fresh buffer before incubation with either 200 μM […] alone or the combination of 200 μM 2′,3′-DDA plus 30 μM IBMX followed by repeat exposure to ACh.

Test [6] relates to gap junctions in isolated rabbit femoral arteries. Nature of the test: Dye transfer (calcein AM) from endothelium to media in perfused femoral arteries. The format is cell-based. Particulars: for Space constant of decay of medial fluorescence: calcein AM, control 8.54 μm; for Dye within the vessel wall after intraluminal perfusion: 10 μM dye perfused through the lumen for 30 min. How it is done: Dye Transfer. […] In control experiments arteries were perfused with 10 μM calcein, which is membrane impermeable. The vessels were subsequently removed from the myograph and fixed in 0.1 M PBS containing 0.2% glutaraldehyde and 2% formalin for 90 min before cryopreservation in OCT compound (Agar Scientific, […], UK), cooled by liquid N2. Cryosections of transverse rings (10 μm thick) were prepared and mounted onto poly-L-lysine-coated slides under Fluorsave (Calbiochem) and imaged with a TCS four-dimensional confocal laser scanning system (Leica) with the filters set for 490 nm excitation and 525 nm emission. A gallery of several images was collected at 0.5-μm steps for each sample followed by image processing by using […] software to obtain a maximum projection image.

Test [7] relates to pig coronary artery. The following applies: cited from earlier work.

For `C[C@H]1O[C@@H](n2cnc3c(N)ncnc32)C[C@@H]1O` [2′,5′-DDA, 2′,5′-dideoxyadenosine], the “Effect on PE contractions” value in test [1] was “unaffected”. For the same compound, the “Effect on transient peak in cAMP levels evoked by ACh” value in test [2] (2′,5′-DDA 200 μM, ACh 3 μM) is listed as “abolished”. The “Maximal relaxation to A23187 in sandwich preparations with 2′,5′-DDA, % of PE-induced tone” value in test [3] (2′,5′-DDA 200 μM) is given as 18.5±9.2%. The “Maximal relaxation to A23187 in presence of 2′,5′-DDA, % of PE-induced tone” value in test [4] (2′,5′-DDA 200 μM, A23187-evoked, endothelium-intact rings) was determined as 40.3±8.3%. For the same compound, the “Maximal relaxation to ACh in presence of 2′,5′-DDA” value in test [4] (2′,5′-DDA 200 μM, ACh-evoked, endothelium-intact rings) is 11.0±1.9%.
Consider `Nc1ncnc2c1ncn2[C@H]1CC[C@@H](CO)O1` [2′, 3′-DDA, 2′,3′-dideoxyadenoine], for which the “Attenuation of transmission of electrical changes in endothelial membrane potential into subintimal smooth muscle cells” value in test [5] (200 μM, ACh-evoked) was around 75%.
With `Nc1nc2c(nc(Br)n2[C@@H]2O[C@@H]3COP(=O)(O)O[C@H]3[C@H]2O)c(=O)[nH]1` [8-bromo-cGMP], the “Space constant of decay of medial fluorescence” value in test [6] (1 mM nucleotide analogue) is given as 8.39 ± 0.44 μm.
In the case of `CC1(C)[C@@H](O)CC[C@]2(C)[C@H]3C(=O)C=C4[C@H]5C[C@@](C)(C(=O)O)CC[C@]5(C)CC[C@@]4(C)[C@]3(C)CC[C@@H]12` [18α-GA, 18α-glycyrrhetinic acid], the “Effect on nucleotide (cAMP) accumulation evoked by A23187” value in test [2] (18α-GA 100 μM, A23187 3 μM) is on record as “no significant effect”. The “Effect on transient rise in cAMP levels evoked by ACh” value in test [2] (18α-GA 100 μM, ACh 3 μM) was “abolished”. For the same compound, in test [4] (18α-GA 100 μM), the “Effect on EDHF-type relaxations evoked by A23187” value is recorded as “had no effect” and the “Effect on EDHF-type relaxations evoked by ACh” value is reported as “effectively abolished”.
Consider `CC(=O)OCC[N+](C)(C)C` [ACh, acetylcholine], for which the “Increase (elevation) in smooth muscle cAMP levels” value in test [2] (rings incubated with L-NAME and indomethacin, endothelium-dependent) came out at 1.5 fold. Besides, in test [5] (3 μM Ach, intact endothelium), the “Subintimal hyperpolarization sustained below baseline” value is reported as around 20 mV. Besides, the EC50 in test [4] (Oryctolagus cuniculus, endothelium-intact rings, L-NAME + indomethacin, control of IBMX / 2′,5′-DDA series, read-out: EC50 of EDHF-type relaxation (control)) was found to be 555 ± 121 nM. In addition, the “Maximal EDHF-type relaxations, % of PE-induced tone” value in test [4] (approximate, at concentrations ~3 μM, L-NAME 300 μM + indomethacin 10 μM) was around 40%. The “Maximal EDHF-type relaxation, % of PE-induced tone (control)” value in test [4] (endothelium-intact rings, L-NAME 300 μM + indomethacin 10 μM, control of IBMX / 2′,5′-DDA series) is listed as 36.0±5.0%.
`CC(C)Cn1c(=O)n(C)c(=O)c2[nH]cnc21` [IBMX, 3-isobutyl-1-methylxanthine]: in test [6] (20 μM IBMX), the “Space constant of decay of medial fluorescence” value was 11.50±0.80 μm and ≈ 12 μm. Besides, the “Reversal of the 2′,3′-DDA block of hyperpolarization” value in test [5] (IBMX 30 μM after 200 μM 2′,3′-DDA) is given as “completely reversed”. Moreover, the “Maximal relaxation to A23187 in sandwich preparations with IBMX” value in test [3] (IBMX 20 μM) worked out at 70.0±6.50%. Also, the “Maximal relaxation to A23187 in presence of IBMX” value in test [4] (IBMX 20 μM, A23187-evoked, endothelium-intact rings, control 50.2%) worked out at 73.0 ± 8.5%. Moreover, the “Maximal relaxation to ACh in presence of IBMX” value in test [4] (IBMX 20 μM, ACh-evoked, endothelium-intact rings, control 36.0%) amounted to 65.5±4.5%.
For the compound `CNC[C@H](O)c1cccc(O)c1` [PE, phenylephrine], the PE-evoked constrictions in test [1] (1 μM PE, L-NAME 300 μM and indomethacin 10 μM, intact endothelium, pooled data) came out at 2.0 ± 0.1 g. Moreover, in test [1] (3 μM PE, IBMX 20 μM, pooled data), the “Initial tension restored by PE in presence of IBMX” value was found to be 1.8 ± 0.1 g.
As for `O=C(O)CN(CC(=O)O)Cc1cc2c(cc1O)Oc1cc(O)c(CN(CC(=O)O)CC(=O)O)cc1C21OC(=O)c2ccccc21` [calcein], in test [6], the “Dye within the vessel wall after intraluminal perfusion” value is listed as “only autofluorescence of the internal elastic lamina was evident”.
With `COc1cc2c3cc1Oc1cc(ccc1O)C[C@@H]1c4c(cc(OC)c(O)c4Oc4ccc(cc4)C[C@@H]3N(C)CC2)CC[N+]1(C)C` [d-tubocurarine], in test [7], the “Effect on endothelial hyperpolarization evoked by 0.5 μM A23187” value is reported as “abolished”; the “Effect on mechanical relaxation and endothelium and smooth muscle hyperpolarizations evoked by substance P” value is “inhibited”; the “Effect on relaxation and smooth muscle hyperpolarization evoked by 0.5 μM A23187” value is recorded as “unaffected”.
Take `COc1ccc(Cl)cc1C(=O)NCCc1ccc(S(=O)(=O)NC(=O)NC2CCCCC2)cc1` [glibenclamide]: in test [1], the “Effect on PE contractions” value is “unaffected”. Besides, in test [4] (glibenclamide 10 μM), the “Effect on EDHF-type relaxations evoked by A23187” value is reported as “did not significantly affect” and the “Effect on EDHF-type relaxations evoked by ACh” value was “did not significantly affect”.
Turning to calcein AM, the “Dye within the vessel wall after intraluminal perfusion” value in test [6] is “detected within the vessel wall”. The “Space constant of decay of medial fluorescence (control conditions)” value in test [6] (calcein AM 10 μM, L-NAME + indomethacin) was 8.54±0.39 μm.

Values taken from patent US20030105165A1, “Gap junctions and EDHF” (priority 2001, published 2003).
